In patent publication US11311610B2, “Immune-modulating agents and uses therefor” (UNIVERSITY OF TECHNOLOGY SYDNEY, priority 2010, dated 2022):
Where a SMILES comes first, the peptide text is derived from it.

Key:
RAW macrophages = experiment: ATP induced macrophage cell death (LDH release); format: cell-based, murine; settings: 20 μg/mL pre-treatment 1 h, then ATP 5 mM 2 h
Description: FIG. 16 is a graphical representation showing that FhHDM-1 P3 prevents ATP induced cell death in RAW macrophages. RAW macrophages were pretreated with either FhHDM-1 (20 μg/mL) or FhHDM-1 p3 (20 μg/mL) for 1 h, then washed and cultured in the presence of ATP (5 mM) for 2 h. Cell death (% cytotoxicity) was quantified according to the amount of LDH released by the cells into culture media.
Raw macrophages were pre-treated with either HDM (20 μg/mL) or FhHDM-1 P3 (20 μg/mL) for 1 h, washed and then cultured in the presence of ATP (5 mM) for 2 h. The culture supernatants were collected and assayed for LDH activity with an LDH release kit. The amount of LDH release by cells treated with ATP only was used to represent 100% cytotoxicity.

[1] = established T1D, early randomized trials; cited from earlier work
[2] = system: ATPase activity associated with lysosomal membranes (equivalent to vATPase activity); experiment: ATPase activity of enriched lysosomal membranes; format: biochemical, murine; settings: lysosomal membranes from RAW264.7 macrophage lysates
Description: FIG. 17 is a graphical representation showing that FhHDM-1 P3 inhibits ATPase activity associated with lysosomal membranes in a concentration-dependent manner. A cellular fraction enriched for lysosomes was prepared by sequential centrifugation of RAW264.7 macrophage lysates. The lysosomal membranes were recovered and assayed (with or without HDM peptides) for ATPase activity using a commercially available kit.
FIG. 18 is a diagrammatic representation showing a sequence alignment of various synthetic HDM peptides. The amphipathic helix is shaded in grey as are the mutated residues in peptides nonHP and 2Pro. NonHP is a variant of FhHDM-1 P3 in which the hydrophobic face of the FhHDM-1 amphipathic helix was removed. 2Pro is a variant of FhHDM-1 P3 in which two prolines substitutions were incorporated to disrupt the alpha-helix. Cons_p3 is a consensus peptide corresponding to various FhHDM-1 homologs. All peptides in the alignment were tested for their ability to inhibit the ATPase activity associated with enriched lysosomal membranes (prepared from RAW macrophages). Those with inhibitory activity are shown in bold text.
A cellular fraction enriched for lysosomes was prepared by sequential centrifugation of RAW264.7 macrophage lysates. The lysosome pellet was extracted with water and the resulting lysosomal membranes were recovered and assayed (with or without HDM peptides) for ATPase activity using a commercially available kit.

RAW264.7 cells = experiment: Binding of FITC-conjugated LPS to RAW 264.7 cells (flow cytometry); format: cell-based, murine; settings: 0.1-10 μg/mL, 20 min at 4° C.
Description: (§1) FIG. 9 is a graphical representation showing LPS neutralization by FhHDM-1. The ability of FhHDM-1 (Δ), FhHDM-1 p1 (●) or FhHDM-1 p3 (▪) to bind to LPS was investigated by (A) incubating a range of concentrations of proteins (0.02-2 μg/well) in an LPS-coated (100 ng/well) microtitre plate. Bound peptides were detected by ELISA using rabbit anti-FhHDM-1 as a primary antibody. (B) FhHDM-1 or derived peptides (0.1 μg) were incubated in the presence of LPS (0.05-5 μg/well) and bound peptides measured as described above. Binding of peptides to the LPS-immobilized plates was expressed as a percentage of that measured for 2 μg (for panel A) or 0.1 μg (for panel B) of FhHDM-1. Data are the means±SD from three separate experiments. (C) FhHDM-1 and FhHDM-1 p3 but not FhHDM-1 p1 reduced the interaction between LPS and LBP as effectively as LL-37. LPS-coated microtitre plates were incubated with 5 μg/well of LL-37, FhHDM-1 or derived peptides for 1 h prior to the addition of 10% human sera in PBS. Interaction of LBP with LPS was measured by ELISA using an anti-LBP primary antibody and expressed as a percentage of that detected for 10% sera in the absence of added peptides. Data are the mean±SD of three separate experiments. Statistical significance was calculated using the student t-test and represent a comparison to the binding of 10% sera to immobilized LPS. (D) Binding of FITC-conjugated LPS to RAW264.7 cells was inhibited by LL-37, FhHDM-1 and peptides. […] The binding of FITC-LPS was analyzed by flow cytometry. LPS binding was expressed as a percentage of the mean fluorescence obtained for the addition of FITC-LPS to cells in the absence of peptides. […] Two hours later, sera was collected and serum levels of TNF and (F) IL-10 measured by ELISA. (G) Peritoneal macrophages were isolated, cultured unstimulated in media overnight and then levels of TNF and (H) IL-10 in the culture measured by ELISA. […]
The effect of FhHDM-1 and derived peptides on the binding of FITC-LPS to CD14+ cells was determined by flow cytometry of the murine macrophage cell line RAW264.7. […]

[3] = system: interaction of LPS with LPS-binding protein (LBP); experiment: Assay for the interaction of LPS with LBP (ELISA); set-up: species or system mouse; settings: 5 μg/well, 1 h before 10% sera; ELISA with anti-LBP
Description: as §1
The ability of FhHDM-1 and derived peptides to block the interaction of LPS with LPB was assessed by ELISA using an anti-LBP primary antibody. […]

[4] = system: LPS-induced inflammatory response; experiment: Endotoxin (LPS)-induced inflammation in mice, co-injection; format: in vivo, BALB/c mice
Description: FIG. 9 is a graphical representation showing LPS neutralization by FhHDM-1. The ability of FhHDM-1 (Δ), FhHDM-1 p1 (●) or FhHDM-1 p3 (▪) to bind to LPS was investigated by (A) incubating a range of concentrations of proteins (0.02-2 μg/well) in an LPS-coated (100 ng/well) microtitre plate. Bound peptides were detected by ELISA using rabbit anti-FhHDM-1 as a primary antibody. (B) FhHDM-1 or derived peptides (0.1 μg) were incubated in the presence of LPS (0.05-5 μg/well) and bound peptides measured as described above. Binding of peptides to the LPS-immobilized plates was expressed as a percentage of that measured for 2 μg (for panel A) or 0.1 μg (for panel B) of FhHDM-1. Data are the means±SD from three separate experiments. (C) FhHDM-1 and FhHDM-1 p3 but not FhHDM-1 p1 reduced the interaction between LPS and LBP as effectively as LL-37. LPS-coated microtitre plates were incubated with 5 μg/well of LL-37, FhHDM-1 or derived peptides for 1 h prior to the addition of 10% human sera in PBS. Interaction of LBP with LPS was measured by ELISA using an anti-LBP primary antibody and expressed as a percentage of that detected for 10% sera in the absence of added peptides. Data are the mean±SD of three separate experiments. Statistical significance was calculated using the student t-test and represent a comparison to the binding of 10% sera to immobilized LPS. (D) Binding of FITC-conjugated LPS to RAW264.7 cells was inhibited by LL-37, FhHDM-1 and peptides. RAW264.7 cells (5×10^5 cells/mL) were incubated with 1 μg/mL of FITC-conjugated LPS in the presence of increasing concentrations (0.1-10 μg/mL) of FhHDM-1, FhHDM-1 p1 and FhHDM-1 p3 and LL-37 in RPMI 1640 containing 10% FBS for 20 min at 4° C. The binding of FITC-LPS was analyzed by flow cytometry. LPS binding was expressed as a percentage of the mean fluorescence obtained for the addition of FITC-LPS to cells in the absence of peptides. Data are the mean±SD of two independent experiments. (E) FhHDM-1 and FhHDM-1 p3 both suppress the inflammatory response induced by LPS in mice. BALB/c mice were intra-peritoneally injected with 1 μg of LPS alone or combined with 1 μg of FhHDM-1, FhHDM-1 p3 or LL-37. Two hours later, sera was collected and serum levels of TNF and (F) IL-10 measured by ELISA. (G) Peritoneal macrophages were isolated, cultured unstimulated in media overnight and then levels of TNF and (H) IL-10 in the culture measured by ELISA. Data are the mean±SD of six mice in each group. Statistical significance represents a comparison to the levels of cytokines secreted by mice given LPS only.
Human Defense peptides protect against harmful inflammatory responses by preventing activation of macrophages by classical TLR ligands such as LPS (Scott et al. 2002, J. Immunol. 169, 3883-3891). Here, the inventors employed a murine model to examine whether FhHDM-1 and derived peptides can suppress LPS-induced Th1 inflammation. BALB/c mice were injected intra-peritoneally with 1 μg of LPS alone or LPS combined with 1 μg of FhHDM-1, FhHDM-1 p3 or LL-37. Two hours later, sera was collected and serum levels of the pro-inflammatory mediators TNF and IL-10 were measured by ELISA. […] Because macrophages are the main source of pro-inflammatory mediators in this murine model of inflammation, peritoneal macrophages were isolated from treated mice (LPS±FhHDM-1, peptides or LL-37 as described above), cultured unstimulated in media overnight and then levels of TNF and IL-10 in the culture media were measured by ELISA.
Six week-old female BALB/c mice were purchased from ARC (Perth, Australia) and maintained according to the guidelines of the University of Technology Sydney Animal Care and Ethics committee. For the analysis for endotoxin-induced inflammation, mice were intra-peritoneally injected with 1 μg of E. coli LPS (serotype 111:B4; Sigma) either with or without 1 μg FhHDM-1 or derived peptides. After 2 h mice were sacrificed by cervical dislocation. […]

[5] = BALB/c mice, 1 μg LPS mixed with 1 μg i.p., 2 h
[6] = macrophages from treated mice, cultured unstimulated overnight

CC[C@H](C)[C@H](NC(=O)[C@H](CCCCN)NC(=O)[C@H](CCC(=O)O)NC(=O)CNC(=O)[C@H](CC(C)C)NC(=O)[C@H](CC(N)=O)NC(=O)[C@H](CC(=O)O)NC(=O)[C@H](CCCCN)NC(=O)[C@H](C)NC(=O)[C@H](CC(C)C)NC(=O)[C@H](Cc1ccc(O)cc1)NC(=O)[C@H](C)NC(=O)[C@H](CCSC)NC(=O)[C@H](C)N)C(=O)N[C@H](C(=O)N[C@@H](CCC(=O)O)C(=O)N[C@H](C(=O)N[C@H](C(=O)N[C@H](C(=O)N[C@H](C(=O)N[C@@H](CC(C)C)C(=O)N[C@@H](CC(C)C)C(=O)N[C@@H](CC(N)=O)C(=O)N[C@@H](CCCNC(=N)N)C(=O)N[C@@H](CC(C)C)C(=O)N[C@H](C(=O)N[C@@H](CC(=O)O)C(=O)N[C@@H](CCCNC(=N)N)C(=O)N[C@@H](CC(C)C)C(=O)N[C@@H](CCC(=O)O)C(=O)N[C@@H](CCCCN)C(=O)N[C@@H](Cc1ccc(O)cc1)C(=O)N[C@@H](C)C(=O)NCC(=O)O)[C@@H](C)O)[C@@H](C)CC)[C@@H](C)O)[C@@H](C)CC)C(C)C)[C@@H](C)O [FhHDM-1 p3] (H-AMAYLAKDNLGEKITEVITILLNRLTDRLEKYAG-OH)
LDH release induced by ATP (cytotoxicity of ATP) (RAW macrophages): inhibited LDH release

Cn1cnc([N+](=O)[O-])c1Sc1ncnc2nc[nH]c12 [azathioprine]
treated patients becoming independent of insulin therapy [1]: approximately 50%

HDMp2: SEQ ID NO:122, 27 aa, comprising a shorter amphipathic helix than FhHDM-1 peptide 3 (NLGEKITEVITILLNRLTDRLEKYAGN; FhHDM-1 peptide 2)
ATPase activity associated with lysosomal membranes [2]: inhibitory

LL-37 [reference compound]
binding of FITC-LPS to RAW264.7 macrophages (RAW264.7 cells): most strongly inhibited | interaction between LPS and LBP [3]: significantly reduced | serum levels of IL-10 [4, 5]: significant reduction | serum levels of TNF [4, 5]: significant reduction | LPS-induced secretion of IL-10 from peritoneal macrophages [4, 6]: significantly inhibited | TNF secreted from peritoneal macrophages [4, 6]: did not significantly reduce
